Holding throughout (assay type): physicochemical
A short description of series [1]: Visible light transmittance of chloroform solution. To be noted: spectrum converted to transmittance 10% at near-infrared maximum absorption wavelength. The procedure:
The visible light transmittance of the phthalocyanine-based compound of the present invention and the comparative example compounds was measured by the following measurement method.
Each of the phthalocyanine compounds ([…]) and approximately 90 mL of chloroform were put into a 100 mL volumetric flask, and the solution in the flask was irradiated with ultrasonic waves for 30 minutes and left to stand for 2 hours at room temperature. Then, chloroform was added thereto such that the meniscus of the solution matched up with the calibration mark on the volumetric flask, thereby preparing a 10 mg/L phthalocyanine solution. The prepared solution was put into a 1 cm×1 cm cell made of PYREX (registered trademark), and the absorption spectrum thereof was measured using a spectrophotometer (produced by Hitachi, Ltd.: Spectrophotometer U-3500).
The absorption spectrum measured as above was converted such that the absorbance became 1.0, that is, the transmittance became 10% at the maximum absorption wavelength in a near-infrared range, thereby obtaining a transmission spectrum. […] At 460 nm, the transmittance of the compound of the present invention was approximately the same as the transmittance of Comparative Examples 1 and 2.

Series [2] can be described thus: Visible light transmittance of laminated glass sample. To be noted: 380 to 780 nm, JIS R3212. Here is the method: (§1) The phthalocyanine-based compound (Specific Example (1)-30) produced in Example 1 (0.013 g) was dissolved in 40 g of triethylene glycol-di-2-ethylhexanoate as an organic ester plasticizer. The obtained solution was added to 100 g of a polyvinyl butyral resin (trade name: BH-3, produced by SEKISUI CHEMICAL CO., LTD.), thoroughly melted and kneaded using a mixing roll, and extruded using an extruder, thereby obtaining an interlayer having a thickness of 0.76 mm.
(§2) The interlayer was cut in size of 100 mm×100 mm, interposed between heat ray absorbing glass plates (100 mm (length)×100 mm (width)×2.0 mm (thickness)) prepared based on JIS R3208, put into a rubber bag, and deaerated for 20 minutes at a degree of vacuum of 2.6 kPa. Then, the deaerated laminate was moved into an oven and further hold for 30 minutes at 90° C. to vacuum press. Thereafter, the laminate was compressed for 20 minutes in an autoclave under the condition of a temperature of 130° C. and a pressure of 1.3 MPa, thereby obtaining a laminated glass sample.
By using U-3500 type recording spectrophotometer produced by Hitachi, Ltd. as a measurement instrument, the visible light transmittance of the laminated glass samples at a wavelength of 380 to 780 nm was measured based on JIS R3212 “Test methods of safety glazing materials for road vehicles”.

Series [3] is described as follows: Light fastness test of laminated glass. To be noted: xenon light 200 hours at 550 W/h, absorbance integrated 400 to 900 nm. Here is the method:
as §1, §2
For a light fastness test, the absorption spectrum of the laminated glass was measured using a spectrophotometer (produced by Hitachi, Ltd.: Spectrophotometer U-3500) and adopted as a spectrum before light fastness test. Then, the laminated glass used for measuring the spectrum before test was irradiated with light for 200 hours at 550 W/h by using a xenon light fastness tester (produced by Toyo Seiki Seisaku-sho, Ltd.: SUNTEST XLS+). The absorption spectrum of the laminated glass irradiated with light was measured using the spectrophotometer and adopted as a spectrum after light fastness test.
In each of the spectra measured as above before and after the light fastness⋅heat resistance test, the values of absorbance within a range of 400 to 900 nm were integrated, and a difference between the integrated value before the light fastness⋅heat resistance test and the integrated value after the light fastness⋅heat resistance test was calculated.
The difference ΔE between the absorbance before the light fastness⋅heat resistance test and the absorbance after the light fastness⋅heat resistance test is expressed by the following equation. ΔE (%)={E(400 to 900 nm in E1)−E(400 to 900 nm in E2)}/E(400 to 900 nm in E1)×100
E1 represents the spectrum before test, E2 represents the spectrum after test, and Σ represents integration of values of absorbance. The larger the value of ΔE, the greater the spectrum change between before and after the light fastness⋅heat resistance test.

Take `COc1cccc(OC)c1OCCCCc1ccc(CCCCOc2c(OC)cccc2OC)c2c1-c1nc-2nc2[n-]c(nc3nc(nc4[n-]c(n1)c1c(CCCCOc5c(OC)cccc5OC)ccc(CCCCOc5c(OC)cccc5OC)c41)-c1c(CCCCOc4c(OC)cccc4OC)ccc(CCCCOc4c(OC)cccc4OC)c1-3)c1c(CCCCOc3c(OC)cccc3OC)ccc(CCCCOc3c(OC)cccc3OC)c21.[O]=[V+2]` [Specific Example (1)-44]: in series [1], the “Transmittance (%) 460 nm” value came to 98.3% and the “Transmittance (%) 610 nm” value is 89.0%. Besides, the Visible light transmittance in series [2] worked out at 77.9%. In addition, in series [3], the “ΔE (%) Light fastness” value is listed as 3%.
For `COCCCCc1ccc(CCCCOC)c2c1-c1nc-2nc2[n-]c(nc3nc(nc4[n-]c(n1)c1c(CCCCOC)ccc(CCCCOC)c41)-c1c(CCCCOC)ccc(CCCCOC)c1-3)c1c(CCCCOC)ccc(CCCCOC)c21.[O]=[V+2]` [Specific Example (1)-30] the same measures were 98.1%, 88.4%, 78.1% and 5%.
For `CC(C)(C)c1ccc(OCCCCc2ccc(CCCCOc3ccc(C(C)(C)C)cc3)c3c2-c2nc-3nc3[n-]c(nc4nc(nc5[n-]c(n2)c2c(CCCCOc6ccc(C(C)(C)C)cc6)ccc(CCCCOc6ccc(C(C)(C)C)cc6)c52)-c2c(CCCCOc5ccc(C(C)(C)C)cc5)ccc(CCCCOc5ccc(C(C)(C)C)cc5)c2-4)c2c(CCCCOc4ccc(C(C)(C)C)cc4)ccc(CCCCOc4ccc(C(C)(C)C)cc4)c32)cc1.[O]=[V+2]` [Specific Example (1)-42], in that order: 97.9%, 88.5%, 77.7% and 2%.
For `COCc1ccc(COC)c2c1-c1nc-2nc2[n-]c(nc3nc(nc4[n-]c(n1)c1c(COC)ccc(COC)c41)-c1c(COC)ccc(COC)c1-3)c1c(COC)ccc(COC)c21.[O]=[V+2]` [Comparative Example Compound (a), reference compound], in that order: 97.9%, 86.6%, 75% and 33%.
As to `CCOCCCCc1ccc(CCCCOCC)c2c1-c1nc-2nc2[n-]c(nc3nc(nc4[n-]c(n1)c1c(CCCCOCC)ccc(CCCCOCC)c41)-c1c(CCCCOCC)ccc(CCCCOCC)c1-3)c1c(CCCCOCC)ccc(CCCCOCC)c21.[O]=[V+2]` [Specific Example (1)-33], in series [1], the “Transmittance (%) 460 nm” value turned out to be 98.1% and the “Transmittance (%) 610 nm” value turned out to be 88.3%. This compound yielded a Visible light transmittance in series [2] of 77.5%. In addition, the “ΔE (%) Light fastness” value in series [3] was 2%.
For `COc1cccc(OC)c1OCCCCc1ccc(CCCCOc2c(OC)cccc2OC)c2c1-c1nc-2nc2[n-]c(nc3nc(nc4[n-]c(n1)c1c(CCCCOc5c(OC)cccc5OC)ccc(CCCCOc5c(OC)cccc5OC)c41)-c1c(CCCCOc4c(OC)cccc4OC)ccc(CCCCOc4c(OC)cccc4OC)c1-3)c1c(CCCCOc3c(OC)cccc3OC)ccc(CCCCOc3c(OC)cccc3OC)c21.[Cu+2]` [Specific Example (1)-45] the same measures were 99.9%, 89.5%, 77.4% and 3%.
For `[O]=[V+2].c1ccc(OCCCCc2ccc(CCCCOc3ccccc3)c3c2-c2nc-3nc3[n-]c(nc4nc(nc5[n-]c(n2)c2c(CCCCOc6ccccc6)ccc(CCCCOc6ccccc6)c52)-c2c(CCCCOc5ccccc5)ccc(CCCCOc5ccccc5)c2-4)c2c(CCCCOc4ccccc4)ccc(CCCCOc4ccccc4)c32)cc1` [Specific Example (1)-37], in that order: 98.0%, 88.1%, 77.9% and 3%.
Regarding `COCCCCc1ccc(CCCCOC)c2c1-c1nc-2nc2[n-]c(nc3nc(nc4[n-]c(n1)c1c(CCCCOC)ccc(CCCCOC)c41)-c1c(CCCCOC)ccc(CCCCOC)c1-3)c1c(CCCCOC)ccc(CCCCOC)c21.[Cu+2]` [Specific Example (1)-31], in series [1], the “Transmittance (%) 460 nm” value was determined as 99.2% and the “Transmittance (%) 610 nm” value came to 88.3%. In addition, the Visible light transmittance in series [2] amounted to 77.7%. Besides, the “ΔE (%) Light fastness” value in series [3] was determined as 3%.
For `Fc1ccccc1OCCCCc1ccc(CCCCOc2ccccc2F)c2c1-c1nc-2nc2[n-]c(nc3nc(nc4[n-]c(n1)c1c(CCCCOc5ccccc5F)ccc(CCCCOc5ccccc5F)c41)-c1c(CCCCOc4ccccc4F)ccc(CCCCOc4ccccc4F)c1-3)c1c(CCCCOc3ccccc3F)ccc(CCCCOc3ccccc3F)c21.[O]=[V+2]` [Specific Example (1)-43] the same measures were 97.6%, 88.0%, 77.6% and 3%.
For `COc1cccc(OCCCCc2ccc(CCCCOc3cccc(OC)c3)c3c2-c2nc-3nc3[n-]c(nc4nc(nc5[n-]c(n2)c2c(CCCCOc6cccc(OC)c6)ccc(CCCCOc6cccc(OC)c6)c52)-c2c(CCCCOc5cccc(OC)c5)ccc(CCCCOc5cccc(OC)c5)c2-4)c2c(CCCCOc4cccc(OC)c4)ccc(CCCCOc4cccc(OC)c4)c32)c1.[O]=[V+2]` [Specific Example (1)-39] the same measures were 97.7%, 88.1%, 78% and 4%.
As for `COc1cccc(OCCCCc2ccc(CCCCOc3cccc(OC)c3)c3c2-c2nc-3nc3[n-]c(nc4nc(nc5[n-]c(n2)c2c(CCCCOc6cccc(OC)c6)ccc(CCCCOc6cccc(OC)c6)c52)-c2c(CCCCOc5cccc(OC)c5)ccc(CCCCOc5cccc(OC)c5)c2-4)c2c(CCCCOc4cccc(OC)c4)ccc(CCCCOc4cccc(OC)c4)c32)c1.[Cu+2]` [Specific Example (1)-40], in series [1], the “Transmittance (%) 460 nm” value stood at 99.4% and the “Transmittance (%) 610 nm” value is given as 88.0%. In series [2], this compound yielded a Visible light transmittance of 77.9%. Moreover, in series [3], the “ΔE (%) Light fastness” value was 2%.
For `[O]=[V+2].c1ccc(OCCOCCCCc2ccc(CCCCOCCOc3ccccc3)c3c2-c2nc-3nc3[n-]c(nc4nc(nc5[n-]c(n2)c2c(CCCCOCCOc6ccccc6)ccc(CCCCOCCOc6ccccc6)c52)-c2c(CCCCOCCOc5ccccc5)ccc(CCCCOCCOc5ccccc5)c2-4)c2c(CCCCOCCOc4ccccc4)ccc(CCCCOCCOc4ccccc4)c32)cc1` [Specific Example (1)-38], in that order: 98.3%, 88.6%, 77.8% and 4%.

For the origin of these results see patent US11015061B2, “Phthalocyanine-based compound and uses of same” (YAMAMOTO CHEMICALS, INC., priority 2017, dated 2021).
